From patent US12691124B2, “Methods of controlling and improving brain health” (ICAHN SCHOOL OF MEDICINE AT MOUNT SINAI, priority 2019, dated 2026)

Columns and labels:
primary cortical neurons [1] = assay: Seahorse mitochondrial stress test; format: cell-based, mouse
Method: Seahorse Mitochondrial Stress Test. In this assay, two fluorescent probes that detect the concentration of oxygen or protons are added to the culture media. Cellular metabolism causes rapid changes in the concentration of these molecules in the media which can be detected by changes in sensor fluorescence. The oxygen consumption rate (OCR) indicates mitochondrial respiration and the extracellular acidification rate (ECAR) is largely due to glycolysis. Certain pathways can be analyzed by the sequential addition of inhibitors to the media and measuring ensuing changes to the OCR and ECAR. First baseline readings are measured to give an understanding of basal metabolic rates. Then the last step of oxidative phosphorylation, the ATP synthase, is inhibited by oligomycin to determine how much oxygen is being used for ATP production. FCCP is next added to decouple the electron transport chain from the ATP synthase by increasing proton permeability of the membrane which drives oxidative phosphorylation to its maximum. Lastly, complex I is inhibited by rotenone to completely shut down mitochondrial respiration. Any oxygen that is consumed after rotenone is due to other cellular processes such as fatty acid metabolism. On the day of the assay, cultures were washed times with artificial CSF (aCSF) [120 mM NaCl, 3.5 mM KCl, 1.3 mM CaCl2, 1 mM MgCl2, 0.4 mM KH2PO4, 5 mM HEPES, 0.4% BSA, 10 mM Sodium-pyruvate, 15 mM Glucose], and incubated at 37° C. without CO2 for one hour prior to assay. Oxygen Consumption rate (OCR) was measured using the Seahorse XFe24 Analyzer (Agilent), under basal conditions and after the sequential addition of […] [carbonyl cyanide p-(trifluoromethoxy) phenylhydrazone], […]. Metrics were calculated according to the following equations. All values were calculated per well and normalized to cell number for each experiment. Each experiment was normalized to the average of all controls across all experiments (n=3) performed.
To understand if this was the case, the major energetic pathway in neurons, mitochondrial respiration, after BET inhibition was assessed using Seahorse technology. […] In addition to lower mitochondrial activity, proton leak which contributes to the production of reactive oxygen species (ROS) is lower after BET inhibition. Because increased ROS levels are detrimental to neuronal health, lower ROS production could also increase neuronal survival after BET inhibition.
Glycolysis also contributes to neuronal metabolism and several key glycolytic metabolites (Fructose 6-phosphate, Glucose-6-phosphate, Phosphoenolpyruvate) were decreased after IBET858. […] Additionally, the decreased maximal responses indicate that this metabolic state is relatively stable.

primary cortical neurons [2] = assay: Autophagy, protein content and cell size in neurons (LC3II/LC3I, BCA, Map2+ area); format: cell-based, mouse
Method: Immunoblotting. Mice were anesthetized with CO2 followed by decapitation, and the region of interest was rapidly dissected and frozen in liquid nitrogen and stored at −80° C. until further processing. Samples were sonicated at 4° C. in 1% SDS solution supplemented with protease, Trichostatin A (500 ng/ml) and PhosStop phosphatase inhibitor (Roche, Switzerland), and boiled for ten minutes. The protein concentration was determined using a BCA protein assay kit (ThermoFisherScientific, USA) according to the manufacturer's instructions. Protein samples were diluted in equal volume of 2×LDS sample buffer (Invitrogen) and supplemented with DTT to a final concentration of 200 mM (Sigma).
Because autophagy increases lipid species which are mostly non-polar, they are not detected in the polar metabolite data. However, if autophagy is, in fact, activated after BET inhibition, the neurons would be smaller and possibly contain less protein. Indeed, total protein content is decreased by 13% as measured by the BCA assay after one week of BET inhibition (FIG. 13C). […] Moreover, BET inhibition causes an almost three-fold increase in autophagy as measured by the ratio of LC3II to LC3I, a common autophagic marker (FIG. 13D).
Primary cortical neurons treated with IBET858 for 1 week have decreased glycolysis and amino acid metabolites (FIG. 21A). […] A summary of gene expression and metabolite data highlighting downregulation of solute carriers and metabolites that support anabolic and oxidative metabolic programs and an upregulation of neuroprotective metabolites and programs, such as autophagy (FIG. 21C). The glycolytic capacity of primary cortical neurons treated with acute (24 hour) or chronic (1 week) of IBET858 (FIGS. 21D-21H). IBET treated neurons was evaluated using the Seahorse assay. […] Further, the neurons display a decrease in glycolytic capacity as measured by the extracellular acidification rate (ECAR) (FIG. 21H). 1 week of IBET858 treatment increases autophagy as measured by an increase in the LC3 II/I ratio and a decrease in overall protein content by BCA assay (FIGS. 21I and 21J). CAG-RFP-EGFP-Map1lc3b mice expressing the LC3 protein together with RFP and a pH-dependent eGFP were used to evaluate the number of autophagic vesicles by immunofluorescence (FIGS. 21K and 21L). […] Frequency distribution of autophagic vesicles after 24 hours (left) or 1 week (right) treatment with IBET858 (FIG. 21L).

CC(=O)N1c2ccc(-c3ccc(CN4CCCCC4)cc3)cc2[C@H](Nc2ccccc2)CC1C (stereo in doubt) [IBET858]
mitochondrial coupling efficiency (primary cortical neurons [1]; 24 h or 1 week IBET858): increased coupling efficiency | basal glycolysis (extracellular acidification rate) (primary cortical neurons [1]; chronic BET inhibition): slightly decreased | basal mitochondrial respiration rates (primary cortical neurons [1]; chronic BET inhibition): significantly decreases | decrease in ATP production (primary cortical neurons [1]; chronic BET inhibition): 50% | maximum glycolytic rate (primary cortical neurons [1]; chronic BET inhibition): significantly attenuated | maximum mitochondrial activity (primary cortical neurons [1]; chronic BET inhibition): also decreased | proton leak (primary cortical neurons [1]; chronic BET inhibition): lower | decrease in somatic area (Map2+ area) (primary cortical neurons [2]): 25% | autophagic vesicles (CAG-RFP-EGFP-Map1lc3b neurons) (primary cortical neurons [2]; 1 w): an increase in autophagic vesicles | increase in autophagy, ratio of LC3II to LC3I (primary cortical neurons [2]; 1 week): three | decrease in total protein content, BCA assay (primary cortical neurons [2]; one week of BET inhibition): 13%
